Consider 14 substances from US11419918B2, “Treatment of biliary cirrhosis based on oxyntomodulin analogue GLP-1R/GCGR dual-target agonist peptide” (Shenzhen Turier Biotech Co., Ltd., priority 2017, dated 2022).

Numbered stars: 1 amine (or outer) side, 2 acyl side, 3 side chain; on linkers, the order of the positions; unused ones are H or OH. Square brackets hold non-standard residues; d marks the D form. Primed or numbered codes have the meaning given here. Side chains are listed from the residue outwards. Ends that are not written are not given here. * marks the point of attachment. C18 diacid = O=C(O)CCCCCCCCCCCCCCCCC(=O)*; γGlu = O=C(O)[C@H](CCC(=O)[*:2])N[*:1]; Stearoyl = CCCCCCCCCCCCCCCCCC(=O)*; Palmitoyl = CCCCCCCCCCCCCCCC(=O)*; Nle = CCCC[C@H](N)C(=O)O; PEG2′ = not defined here; Aib = CC(C)(N)C(=O)O

The subject of this experiment is human hepatic stellate cells (LX-2). In words: In vitro inhibition of hepatic fibrosis: expression of activation marker α-SMA in LX-2 cells (Western Blot, β-actin internal reference). To be noted: 10.0 μM, 48 hours, negative control (PBS) = 100%. It counts as cell-based. On the procedure: Hepatic stellate cell strain LX-2 was selected to study and observe the effect of different doses of test substances on the expression of LX-2 cell activation marker α-SMA. Hepatic stellate cell LX-2 was laid on 35 mm cell culture plate, cultured with DMEM (high glucose)+10% FBS+1% double-antibody culture medium (Thermo Fisher), placed overnight when the cells grew to 70% convergence at 37° C. and under the condition of 5% CO2, and treated with the above GLP-1R/GCGR dual target agonist polypeptides 1-48 (dissolved in PBS) for 48 hours the next day morning to extract cell protein, carry out Western Blot, and take β-actin as internal reference and analyze the expression quantities of α-SMA and β-actin by a gray level of Image J 1.50i. PBS with the same volume as that in experimental group was added in negative control. […] The integrating gray level of α-SMA/β-actin in the negative control group was 100% to analyze the in vitro inhibition activity of hepatic fibrosis of tested polypeptide.
(A western blot detects proteins with antibodies after separation by electrophoresis.)
On to “His-(D-Ser)-Gln-Gly-Thr-Phe-Thr-Ser-Asp-Lys(PEG2-PEG2-CO(CH2)14CH3)-Ser-Lys-Tyr-Leu-Asp-Aib-Arg-Arg-Ala-Gln-Asp-Phe-Val-Gln-Trp-Leu-Met-Asn-Thr-Gly-Gly-Pro-Ser-Ser-Gly-Ala-Pro-Pro-Pro-Ser-NH2 (H[dS]QGTFTSDK([PEG2′-PEG2′-Palmitoyl])SKYLD[Aib]RRAQDFVQWLMNTGGPSSGAPPPS-NH2) [Compound 31]”, for which the “Relative expression of α-SMA (α-SMA/β-actin, %)” value turned out to be 36.89%.

In the case of “His-(D-Ser)-Gln-Gly-Thr-Phe-Thr-Ser-Asp-Lys(PEG2-PEG2-CO(CH2)14CH3)-Ser-Lys-Tyr-Leu-Asp-Aib-Arg-Arg-Ala-Gln-Asp-Phe-Val-Gln-Trp-Leu-Nle-Asn-Thr-Gly-Gly-Pro-Ser-Ser-Gly-Ala-Pro-Pro-Pro-Ser-NH2 (H[dS]QGTFTSDK([PEG2′-PEG2′-Palmitoyl])SKYLD[Aib]RRAQDFVQWL[Nle]NTGGPSSGAPPPS-NH2) [Compound 45]”, the “Relative expression of α-SMA (α-SMA/β-actin, %)” value is 32.22%.

For the substance “His-(D-Ser)-Gln-Gly-Thr-Phe-Thr-Ser-Asp-Lys(PEG2-PEG2-CO(CH2)16CH3)-Ser-Lys-Tyr-Leu-Asp-Aib-Arg-Arg-Ala-Gln-Asp-Phe-Val-Gln-Trp-Leu-Met-Asn-Thr-Gly-Gly-Pro-Ser-Ser-Gly-Ala-Pro-Pro-Pro-Ser-NH2 (H[dS]QGTFTSDK([PEG2′-PEG2′-Stearoyl])SKYLD[Aib]RRAQDFVQWLMNTGGPSSGAPPPS-NH2) [Compound 32]”, the “Relative expression of α-SMA (α-SMA/β-actin, %)” value is on record as 37.14%.

For the substance “His-(D-Ser)-Gln-Gly-Thr-Phe-Thr-Ser-Asp-Lys(PEG2-PEG2-CO(CH2)16CO2H)-Ser-Lys-Tyr-Leu-Asp-Aib-Arg-Arg-Ala-Gln-Asp-Phe-Val-Gln-Trp-Leu-Met-Asn-Thr-Gly-Gly-Pro-Ser-Ser-Gly-Ala-Pro-Pro-Pro-Ser-NH2 (H[dS]QGTFTSDK([PEG2′-PEG2′-C18 diacid])SKYLD[Aib]RRAQDFVQWLMNTGGPSSGAPPPS-NH2) [Compound 30]”, the “Relative expression of α-SMA (α-SMA/β-actin, %)” value stood at 55.53%.

In the case of “His-(D-Ser)-Gln-Gly-Thr-Phe-Thr-Ser-Asp-Lys(PEG2-PEG2-γGlu-CO(CH2)14CH3)-Ser-Lys-Tyr-Leu-Asp-Aib-Arg-Arg-Ala-Gln-Asp-Phe-Val-Gln-Trp-Leu-Leu-Asn-Thr-Gly-Gly-Pro-Ser-Ser-Gly-Ala-Pro-Pro-Pro-Ser-NH2 (H[dS]QGTFTSDK([PEG2′-PEG2′-γGlu-Palmitoyl])SKYLD[Aib]RRAQDFVQWLLNTGGPSSGAPPPS-NH2) [Compound 43]”, the “Relative expression of α-SMA (α-SMA/β-actin, %)” value was 42.34%.

On to “His-(D-Ser)-Gln-Gly-Thr-Phe-Thr-Ser-Asp-Lys(PEG2-PEG2-γGlu-CO(CH2)16CO2H)-Ser-Lys-Tyr-Leu-Asp-Aib-Arg-Arg-Ala-Gln-Asp-Phe-Val-Gln-Trp-Leu-Leu-Asn-Thr-Gly-Gly-Pro-Ser-Ser-Gly-Ala-Pro-Pro-Pro-Ser-NH2 (H[dS]QGTFTSDK([PEG2′-PEG2′-γGlu-C18 diacid])SKYLD[Aib]RRAQDFVQWLLNTGGPSSGAPPPS-NH2) [Compound 47]”, for which the “Relative expression of α-SMA (α-SMA/β-actin, %)” value is listed as 40.36%.

With “His-(D-Ser)-Gln-Gly-Thr-Phe-Thr-Ser-Asp-Lys(PEG2-PEG2-γGlu-CO(CH2)16CO2H)-Ser-Lys-Tyr-Leu-Asp-Aib-Arg-Arg-Ala-Gln-Asp-Phe-Val-Gln-Trp-Leu-Nle-Asn-Thr-Gly-Gly-Pro-Ser-Ser-Gly-Ala-Pro-Pro-Pro-Ser-NH2 (H[dS]QGTFTSDK([PEG2′-PEG2′-γGlu-C18 diacid])SKYLD[Aib]RRAQDFVQWL[Nle]NTGGPSSGAPPPS-NH2) [Compound 48]”, the “Relative expression of α-SMA (α-SMA/β-actin, %)” value is 43.25%.

As to “His-(D-Ser)-Gln-Gly-Thr-Phe-Thr-Ser-Asp-Lys(PEG)-PEG2-γGlu-CO(CH2)14CH3)-Ser-Lys-Tyr-Leu-Asp-Aib-Arg-Arg-Ala-Gln-Asp-Phe-Val-Gln-Trp-Leu-Met-Asn-Thr-Gly-Gly-Pro-Ser-Ser-Gly-Ala-Pro-Pro-Pro-Ser-NH2 (H[dS]QGTFTSDKSKYLD[Aib]RRAQDFVQWLMNTGGPSSGAPPPS-NH2; not fully specified (residue 10); printed as His-(D-Ser)-Gln-Gly-Thr-Phe-Thr-Ser-Asp-Lys(PEG2-PEG2-γGln-CO(CH2)14CH3)-Ser-Lys-Tyr-Leu-Asp-Aib-Arg-Arg-Ala-Gln-Asp-Phe-Val-Gln-Trp-Leu-Met-Asn-Thr-Gly-Gly-Pro-Ser-Ser-Gly-Ala-Pro-Pro-Pro-Ser-NH2; also: first PEG unit on Lys10 of unstated size) [Compound 4]”, the “Relative expression of α-SMA (α-SMA/β-actin, %)” value came to 33.50%.

For “His-(D-Ser)-Gln-Gly-Thr-Phe-Thr-Ser-Asp-Lys(PEG)-PEG2-γGlu-CO(CH2)16CO2H)-Ser-Lys-Tyr-Leu-Asp-Aib-Arg-Arg-Ala-Gln-Asp-Phe-Val-Gln-Trp-Leu-Met-Asn-Thr-Gly-Gly-Pro-Ser-Ser-Gly-Ala-Pro-Pro-Pro-Ser-NH2 (H[dS]QGTFTSDKSKYLD[Aib]RRAQDFVQWLMNTGGPSSGAPPPS-NH2; not fully specified (residue 10); also: first PEG unit on Lys10 of unstated size) [Compound 5]”, the “Relative expression of α-SMA (α-SMA/β-actin, %)” value came to 36.04%.

With “His-(D-Ser)-Gln-Gly-Thr-Phe-Thr-Ser-Asp-Tyr-Ser-Lys(PEG2-PEG2-CO(CH2)14CH3)-Lys-Leu-Asp-Aib-Arg-Arg-Ala-Gln-Asp-Phe-Val-Gln-Trp-Leu-Met-Asn-Thr-Gly-Gly-Pro-Ser-Ser-Gly-Ala-Pro-Pro-Pro-Ser-NH2 (H[dS]QGTFTSDYSK([PEG2′-PEG2′-Palmitoyl])KLD[Aib]RRAQDFVQWLMNTGGPSSGAPPPS-NH2) [Compound 9]”, the “Relative expression of α-SMA (α-SMA/β-actin, %)” value is given as 41.86%.

“His-(D-Ser)-Gln-Gly-Thr-Phe-Thr-Ser-Asp-Tyr-Ser-Lys(PEG2-PEG2-CO(CH2)16CO2H)-Lys-Leu-Asp-Aib-Arg-Arg-Ala-Gln-Asp-Phe-Val-Gln-Trp-Leu-Met-Asn-Thr-Gly-Gly-Pro-Ser-Ser-Gly-Ala-Pro-Pro-Pro-Ser-NH2 (H[dS]QGTFTSDYSK([PEG2′-PEG2′-C18 diacid])KLD[Aib]RRAQDFVQWLMNTGGPSSGAPPPS-NH2) [Compound 2]”: the “Relative expression of α-SMA (α-SMA/β-actin, %)” value turned out to be 41.62%.

“His-(D-Ser)-Gln-Gly-Thr-Phe-Thr-Ser-Asp-Tyr-Ser-Lys(PEG2-PEG2-γGlu-CO(CH2)14CH3)-Lys-Leu-Asp-Aib-Arg-Arg-Ala-Gln-Asp-Phe-Val-Gln-Trp-Leu-Met-Asn-Thr-Gly-Gly-Pro-Ser-Ser-Gly-Ala-Pro-Pro-Pro-Ser-NH2 (H[dS]QGTFTSDYSK([PEG2′-PEG2′-γGlu-Palmitoyl])KLD[Aib]RRAQDFVQWLMNTGGPSSGAPPPS-NH2) [Compound 1]”: the “Relative expression of α-SMA (α-SMA/β-actin, %)” value stood at 63.5%.

Take “His-(D-Ser)-Gln-Gly-Thr-Phe-Thr-Ser-Asp-Tyr-Ser-Lys-Tyr-Leu-Asp-Aib-Lys(PEG2-PEG2-γGlu-CO(CH2)14CH3)-Arg-Ala-Gln-Asp-Phe-Val-Gln-Trp-Leu-Met-Asn-Thr-Gly-Gly-Pro-Ser-Ser-Gly-Ala-Pro-Pro-Pro-Ser-NH2 (H[dS]QGTFTSDYSKYLD[Aib]K([PEG2′-PEG2′-γGlu-Palmitoyl])RAQDFVQWLMNTGGPSSGAPPPS-NH2) [Compound 33]”: the “Relative expression of α-SMA (α-SMA/β-actin, %)” value came to 35.45%.

As for “His-(D-Ser)-Gln-Gly-Thr-Phe-Thr-Ser-Asp-Tyr-Ser-Lys-Tyr-Leu-Asp-Glu-Lys-Ala-Ala-Lys(PEG2-PEG2-γGlu-CO(CH2)14CH3)-Glu-Phe-Ile-Glu-Trp-Leu-Leu-Arg-Ala-NH2 (H[dS]QGTFTSDYSKYLDEKAAK([PEG2′-PEG2′-γGlu-Palmitoyl])EFIEWLLRA-NH2) [Compound 23]”, the “Relative expression of α-SMA (α-SMA/β-actin, %)” value was 45.91%.
